Literature values in US20140356497A1, “Composition” (Natural Biotechnology SPRL, priority 2011, published 2014).

Tested on: Red Delicious apples
Settings: 0.25% calcium ascorbate; considered unsatisfactory

Which “time for which Red Delicious apples are preserved” value does the source give for calcium ascorbate here?
Its value is at most 1 h.
